Assay results as given in patent US20190077795A1, “ARGININE […] INHIBITORS AND USES THEREOF” (Epizyme, Inc., priority 2014, published 2019).
Where two headings read alike, the source gives them in different places.

Assays:
[1] = molecular target: T1, human PRMT6 (Homo sapiens, UniProt Q96LA8); experiment: PRMT6 Biochemical Assay
T1 construct: Flag-PRMT6-His; made in house; host or cells: HEK 293F cells (BacMam baculovirus, pFastBacMam)
From the text: (§1) S-adenosylmethionine (SAM), S-adenosylhomocysteine (SAH), bicine, Tween20, dimethylsulfoxide (DMSO), bovine skin gelatin (BSG), sodium butyrate and Tris(2-carboxyethyl)phosphine hydrochloride solution (TCEP) were purchased from Sigma-Aldrich at the highest level of purity possible. ^3H-SAM was purchase from American Radiolabeled Chemicals with a specific activity of 80 Ci/mmol. 384-well streptavidin Flashplates were purchased from PerkinElmer.
Peptide representative of human histone H4 residues 36-50 was synthesized with an N-terminal linker-affinity tag motif and a C-terminal amide cap by 21st Century Biochemicals.
The amplified gene was subcloned into pFastBacMam (Viva Biotech).
Recombinant baculovirus were generated according to Bac-to-Bac kit instructions (Life Technologies). […] Infections were carried out at 37° C. for 48 hours, harvested by centrifugation, and stored at −80° C. for purification.
Column was washed with 20 mM imidazole in the same buffer and Flag-PRMT6-His was eluted with 150 mM imidazole. Pooled fractions were dialysed against buffer Ni-A and further purified by anti-flag M2 affinity chromatography. Flag-PRMT6-His was eluted with 200 ug/ml FLAG peptide in the same buffer. Pooled fractions were dialysed in 20 mM Tris, 150 mM NaCl, 10% glycerol and 5 mM β-mercaptoethanol, pH 7.8.
General Procedure for PRMT6 Enzyme Assays on Peptide Substrates.
(§2) The assays were all performed in a buffer consisting of 20 mM Bicine (pH=7.6), 1 mM TCEP, 0.005% BSG, and 0.002% Tween 20, prepared on the day of use. […] DMSO (1 ul) was added to Columns 11, 12, 23, 24, rows A-H for the maximum signal control and 1 ul of SAH, a known product and inhibitor of PRMT6, was added to columns 11, 12, 23, 24, rows I-P for the minimum signal control. A cocktail (40 ul) containing the PRMT6 enzyme was added by Multidrop Combi (Thermo-Fisher). The compounds were allowed to incubate with PRMT6 for 30 min at room temperature, then a cocktail (10 ul) containing SAM and peptide was added to initiate the reaction (final volume=51 ul). […] The assays were stopped by the addition of non-radiolabeled SAM (10 ul) to a final concentration of 400 uM, which dilutes the ^3H-SAM to a level where its incorporation into the peptide substrate is no longer detectable. 50 ul of the reaction in the 384-well polypropylene plate was then transferred to a 384-well Flashplate and the biotinylated peptides were allowed to bind to the streptavidin surface for at least 1 hour before being washed once with 0.1% Tween20 in a Biotek ELx405 plate washer. The plates were then read in a PerkinElmer TopCount plate reader to measure the quantity of ^3H-labeled peptide bound to the Flashplate surface, measured as disintegrations per minute (dpm) or alternatively, referred to as counts per minute (cpm).
(§3) Where dpm=disintegrations per minute, cmpd=signal in assay well, and min and max are the respective minimum and maximum signal controls.
(§4) Where top and bottom are the normally allowed to float, but may be fixed at 100 or 0 respectively in a 3-parameter fit. The Hill Coefficient normally allowed to float but may also be fixed at 1 in a 3-parameter fit. Y is the % inhibition and X is the compound concentration.

[2] = molecular target: human PRMT8 (Homo sapiens, UniProt Q9NR22); experiment: PRMT8 Biochemical Assay; details: peptide substrate, 3H-SAM Flashplate assay
Chain of human PRMT8 (Q9NR22 whole entry): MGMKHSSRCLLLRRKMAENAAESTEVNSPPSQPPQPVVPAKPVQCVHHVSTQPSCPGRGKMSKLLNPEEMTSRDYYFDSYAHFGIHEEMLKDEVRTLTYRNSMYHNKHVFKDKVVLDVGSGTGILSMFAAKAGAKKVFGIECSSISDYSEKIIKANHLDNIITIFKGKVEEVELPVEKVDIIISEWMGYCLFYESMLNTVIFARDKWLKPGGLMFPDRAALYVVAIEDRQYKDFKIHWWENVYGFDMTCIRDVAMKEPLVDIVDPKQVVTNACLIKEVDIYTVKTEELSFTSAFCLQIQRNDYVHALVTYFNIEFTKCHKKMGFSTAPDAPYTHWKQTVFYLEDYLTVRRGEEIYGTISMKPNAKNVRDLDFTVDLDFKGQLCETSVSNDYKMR

[3] = molecular target: T2, human PRMT1 (Homo sapiens, UniProt Q99873); experiment: PRMT1 Biochemical Assay; details: peptide substrate, 3H-SAM Flashplate assay
T2 construct: GST-tagged PRMT1; made in house; host or cells: High Five insect cells (baculovirus, pFastBac1)
T2 sequence (Q99873 with tags, fused parts or gaps): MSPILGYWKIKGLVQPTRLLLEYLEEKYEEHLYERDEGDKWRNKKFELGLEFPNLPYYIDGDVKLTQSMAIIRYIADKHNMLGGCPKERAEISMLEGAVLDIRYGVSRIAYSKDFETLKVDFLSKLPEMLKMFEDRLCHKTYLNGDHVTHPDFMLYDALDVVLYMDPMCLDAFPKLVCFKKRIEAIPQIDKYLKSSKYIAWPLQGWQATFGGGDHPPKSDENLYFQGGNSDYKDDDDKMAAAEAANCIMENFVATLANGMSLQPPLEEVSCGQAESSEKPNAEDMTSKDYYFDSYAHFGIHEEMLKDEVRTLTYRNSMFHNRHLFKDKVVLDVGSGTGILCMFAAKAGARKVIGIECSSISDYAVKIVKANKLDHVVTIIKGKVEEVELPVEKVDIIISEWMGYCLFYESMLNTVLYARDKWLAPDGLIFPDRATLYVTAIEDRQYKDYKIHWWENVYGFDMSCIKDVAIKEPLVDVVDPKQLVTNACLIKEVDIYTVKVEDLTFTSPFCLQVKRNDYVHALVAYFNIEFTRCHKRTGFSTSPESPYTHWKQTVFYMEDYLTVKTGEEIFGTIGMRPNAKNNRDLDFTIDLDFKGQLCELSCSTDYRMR
From the text: as §1, with “(BSG),” for “(BSG), sodium butyrate”
Recombinant baculovirus were generated according to Bac-to-Bac kit instructions (Life Technologies). […] Infections were carried out at 27° C. for 48 hours, harvested by centrifugation, and stored at −80° C. for purification.
GST-tagged PRMT1 was eluted with 50 mM Tris, 2 mM glutathione, pH 7.8, dialysed in buffer A and concentrated to 1 mg/mL.
General Procedure for PRMT1 Enzyme Assays on Peptide Substrates.
as §2, with “PRMT1,” for “PRMT6,”, “PRMT1” for “PRMT6”, “300” for “400”
as §3, §4

[4] = tested on: mono-methyl arginine in RKO cells; experiment: RKO Methylation Assay, In Cell Western (ICW); assay type: cell-based; details: 72 hours
From the text: RKO adherent cells were purchased from ATCC (American Type Culture Collection), Manassas, Va., USA. DMEM/Glutamax medium, penicillin-streptomycin, heat inactivated fetal bovine serum, 0.05% trypsin and D-PBS were purchased from Life Technologies, Grand Island, N.Y., USA. Odyssey blocking buffer, 800CW goat anti-rabbit IgG (H+L) antibody, and Licor Odyssey infrared scanner were purchased from Licor Biosciences, Lincoln, Nebr., USA. Mono-methyl arginine antibody was purchased from Cell Signaling Technology, Danvers, Mass., USA. Methanol was purchased from VWR, Franklin, Mass., USA. 10% Tween 20 was purchased from KPL, Inc., Gaithersburg, Md., USA. DRAQ5 was purchased from Biostatus Limited, Leicestershire, UK.
RKO adherent cells were maintained in growth medium (DMEM/Glutamax medium supplemented with 10% v/v heat inactivated fetal bovine serum and 100 units/mL penicillin-streptomycin) and cultured at 37° C. under 5% CO2.
Cell treatment, In Cell Western (ICW) for detection of mono-methyl arginine and DNA content.
Compound (100 nL) from a 96-well source plate was added directly to 384 well cell plate. Plates were incubated at 37° C., 5% CO2 for 72 hours. After three days of incubation, plates were brought to room temperature outside of the incubator for ten minutes and blotted on paper towels to remove cell media. 50 μL of ice cold 100% methanol was added directly to each well and incubated for 30 min at room temperature. After 30 min, plates were transferred to a Biotek EL406 plate washer and washed 2 times with 100 μL per well of wash buffer (1×PBS). Next 60 μL per well of Odyssey blocking buffer (Odyssey Buffer with 0.1% Tween 20 (v/v)) were added to each plate and incubated 1 hour at room temperature. Blocking buffer was removed and 20 μL per well of primary antibody was added (mono-methyl arginine diluted 1:200 in Odyssey buffer with 0.1% Tween 20 (v/v)) and plates were incubated overnight (16 hours) at 4° C. Plates were washed 5 times with 100 μL per well of wash buffer. […] The plates were washed 5 times with 100 μL per well wash buffer then 2 times with 100 μL per well of water. Plates were allowed to dry at room temperature then imaged on the Licor Odyssey machine which measures integrated intensity at 700 nm and 800 nm wavelengths. Both 700 and 800 channels were scanned.
First, the ratio for each well was determined by:
Each plate included fourteen control wells of DMSO only treatment (minimum activation) as well as fourteen control wells for maximum activation treated with 20 μM of a reference compound. The average of the ratio values for each control type was calculated and used to determine the percent activation for each test well in the plate. Reference compound was serially diluted three-fold in DMSO for a total of nine test concentrations, beginning at 20 μM. Percent activation was determined and EC30 curves were generated using triplicate wells per concentration of compound.

[5] = peptide substrate, 3H-SAM Flashplate assay, read-out: PRMT6 IC50

T1 sequence (Q96LA8 with tags, fused parts or gaps): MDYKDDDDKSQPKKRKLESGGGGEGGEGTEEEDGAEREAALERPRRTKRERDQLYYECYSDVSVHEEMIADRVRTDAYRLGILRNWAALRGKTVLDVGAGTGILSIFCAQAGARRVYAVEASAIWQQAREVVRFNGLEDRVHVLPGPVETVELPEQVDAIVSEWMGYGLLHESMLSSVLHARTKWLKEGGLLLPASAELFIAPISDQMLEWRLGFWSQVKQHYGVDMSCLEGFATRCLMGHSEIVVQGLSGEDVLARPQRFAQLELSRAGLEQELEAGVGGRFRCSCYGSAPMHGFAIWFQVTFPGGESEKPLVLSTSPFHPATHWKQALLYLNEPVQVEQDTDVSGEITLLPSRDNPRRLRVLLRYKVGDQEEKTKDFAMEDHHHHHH

Row | SMILES | IC50 [1, 5] [µM] | IC50 ([2]; PRMT8 IC50 (uM)) [µM] | IC50 ([3]; read-out: PRMT1 IC50) [µM] | ICW EC30 [4] [nM] | IC50 ([1]; read-out: PRMT6 IC50) [µM] | IC50 ([2]; read-out: PRMT8 IC50) [µM] | IC50 ([1]; PRMT6 IC50 (uM), peptide substrate, 3H-SAM Flashplate assay) [µM] | IC50 ([3]; PRMT1 IC50 (uM)) [µM]
1 | CNCCN(C)Cc1c[nH]nc1-c1cc(F)c(OC2CCOCC2)c(C(F)(F)F)c1 [Compound 53] | 0.0189 | 0.0328 | 0.011 | 479 |  |  |  | 
2 | CCN(CCOc1cccc(OC)c1)c1ccc(-c2n[nH]cc2CN(C)CCNC)cc1 [Compound 45] | 0.0331 | 0.0367 | 0.00926 | 1140 |  |  |  | 
3 | CNCCN(C)Cc1c[nH]nc1-c1ccc(OCCOc2cccc(C(O)CO)c2)cc1 (centres unmarked) [Compound 148] | 0.00632 | 0.0398 | 0.00822 | 8688 |  |  |  | 
4 | CNCCN(C)Cc1cnn(C2CCC2)c1-c1ccc(OC(C)C)cc1 [Compound 141] | 0.0869 | 0.056 | 0.0658 | 496 |  |  |  | 
5 | CNCCN(C)Cc1c[nH]nc1-c1cc(OC(CO)CC(C)C)cc(C(F)(F)F)c1 (centres unmarked) [Compound 73] |  |  |  | 2102 | 1.9 | 0.0438 |  | 
6 | CNCCN(C)Cc1cn[nH]c1-c1ccc(OC2CC(OCCC3CCOCC3)C2)cc1 (centres unmarked) [Compound 145] |  | 0.223 | 0.119 |  |  |  | 0.0101 | 
7 | CNCCN(C)Cc1c[nH]nc1-c1ccc(O[C@H]2C[C@H](OCCC3CCOCC3)C2)cc1 [Compound 155, N1,N2-dimethyl-N1-((3-(4-(3-(2-(tetrahydro-2H-pyran-4-yl)ethoxy)cyclobutoxy)phenyl)-1H-pyrazol-4-yl)methyl)ethane-1,2-diamine bis(2,2,2-trifluoroacetate)] | 0.0101 |  | 0.119 |  |  | 0.223 |  | 
8 | CNCCN(C)Cc1c[nH]nc1-c1ccc(OC2CC(OCC(C)C)C2)cc1 (centres unmarked) [Compound 131] | 0.0182 |  | 0.0492 | 14756 |  |  |  | 
9 | CNCCN(C)Cc1ccnn1[C@H]1CC[C@@H](COC)CC1 [Compound 110] | 0.143 |  | 0.0364 | 1204 |  |  |  | 
10 | CCN(Cc1ccncc1)c1ccc(-c2n[nH]cc2CN(C)CCNC)cn1 [Compound 113] | 0.105 | 0.243 | 0.0374 |  |  |  |  | 
11 | CNCCN(C)Cc1c[nH]nc1-c1ccc(CC(C)C)c(C(F)(F)F)c1 [Compound 50] | 0.0677 | 0.0245 |  |  |  |  |  | 0.0105
12 | CNCCN(C)Cc1c[nH]nc1-c1cc(OC2CCCC2)cc(C(F)(F)F)c1 [Compound 76] | 0.254 | 0.0871 | 0.0163 |  |  |  |  | 
13 | CNCCN(C)Cc1c[nH]nc1-c1ccc(OC2CC(OCCC3CCCCC3)C2)cc1 (centres unmarked) [Compound 100] | 0.00465 | 0.0599 | 0.03 |  |  |  |  | 
14 | CNCCN(C)Cc1c[nH]nc1-c1ccc(NC(C)c2ccncc2)nc1 (centres unmarked) [Compound 67] | 0.031 | 0.062 | 0.0147 |  |  |  |  | 
15 | CNCCN(C)Cc1c[nH]nc1-c1cc(F)c(OC(CO)CO)c(C(F)(F)F)c1 [Compound 107] | 0.066 | 0.085 | 0.0355 |  |  |  |  | 
16 | CNCCN(C)Cc1c[nH]nc1-c1ccc(NC(C)c2cccnc2)nc1 (centres unmarked) [Compound 52] | 0.0206 | 0.026 | 0.0107 |  |  |  |  | 
17 | COCCCOc1cc(-c2n[nH]cc2CN(C)CCN)cc(C(F)(F)F)c1Cl [Compound 115] | 1.82 | 0.563 | 0.0391 |  |  |  |  | 
18 | CNCCN(C)Cc1c[nH]nc1-c1ccc(OCCOc2ccnnc2)cc1 [Compound 112] | 0.0278 |  | 0.0373 | 3994 |  |  |  | 
19 | CNCCN(C)Cc1c[nH]nc1-c1cc(OCCCC(C)C)cc(C(F)(F)F)c1 [Compound 13] | 0.285 | 0.0261 | 0.00531 |  |  |  |  | 
20 | CNCCN(C)Cc1c[nH]nc1-c1ccc(OCCOc2ccc(OCCC3CCOCC3)cc2)cc1 [Compound 55] | 0.0186 | 0.023 | 0.0113 |  |  |  |  | 
21 | CNCCN(C)Cc1c[nH]nc1-c1ccc(N(C)CC2CCOCC2)nc1 [Compound 120] | 0.272 |  | 0.0417 | 4389 |  |  |  | 
22 | CNCCN(C)Cc1c[nH]nc1-c1ccc(OC2CC(OCCC3CCCCC3)C2)cc1 (centres unmarked) [Compound 150] |  |  |  | >20000 |  |  |  | 
